From patent publication US20030008273A1, “Methods for increasing the survival of neuronal cells” (priority 2001, published 2003)
“Also recorded” adds a separate entry of the source.

Tests used:
[1] = system: Nurr1+/+ cortical cells; experiment: Primary cortical cultures from wild-type (Nurr1+/+) mice, NeuN count; type: cell-based, mouse; settings: 0.1 μM, three days
Experimental: (§1) Nurr1^+/− females were mated with Nurr1^+/− males to generate embryo litters of mixed genotypes (25%^+/+, 50%^+/− and 25%^−/−) as previously described (Zetterström et al, Science 1997). Pregnant females were sacrificed and embryos at embryonic stage E15.5 were dissected. Tails were removed for genotyping. Brains were fine-dissected and meninges removed. Both cortices from each embryo were removed and placed in 500 μl culture medium (N2). When all embryos in the litter were dissected, the cortices were triturated by mechanical dissociation using a fire-polished Pasteur pipette. […] To avoid excessive cell death due to the extended dissection period when using gene targeted mice as compared to wild-type rats, 50 μl cell suspension was routinely plated. This generated cultures in the range of 200.000-470.000 cells per well. Six wells were plated per embryo; three were incubated in N2 only and three with N2+0.1 μM LG268. Cells were incubated for three days and thereafter fixed in 4% paraformaldehyde for 30 minutes and rinsed. For detection of neuronal nuclei, NeuN (diluted 1:300, Chemicon) was used in immunohistochemistry where visualization was with the ABC-kit from Vector. Cells were counted using brightfield microscopy (Eclipse E300M).

[2] = system: hippocampal cultures; experiment: Primary hippocampal cultures, count of Nurr1-positive and non-expressing cells; type: cell-based, rat
Experimental: (§2) Ventral midbrain, cortex and hippocampus from rat embryos at stage E14.5-15.5 were dissected, mechanically dissociated and plated on poly-D-lysine coated 12 or 24 well plates in serum free media (N2, consisting of a 1:1 mixture of MEM (+15 mM HEPES buffer) and Ham's F12 medium (+6 mg/ml glucose, 1 mg/ml bovine serum albumin, 5 ug/ml insulin, 100 ug/ml transferrin, 60 μM putrescine, 20 nM progesterone, 30 nM selenium and 1 mM glutamine). Ligands (all-trans RA, 9-cis retinoic acid, LG268, docosahexanoic acid (DHA), SR11237, TTNPB, and LB1208; stock solutions in DMSO) were diluted to working concentrations in N2, added to cells and incubated 3-5 days. GDNF was dissolved in phosphate-buffered saline (PBS) containing 1 mg/ml bovine serum albumin. These experiments were conducted in triplicate. Paraformaldehyde fixed cultures were then incubated over night with anti-tyrosine hydroxylase (TH) (1:1000, Pel-Freez), anti-NeuN (1:200, Chemicon) or anti-Nurr1 (1: 10,000, Santa Cruz) antibodies in PBS containing 0.5% (TH and NeuN) or 10% (Nurr1) fetal calf serum and 0.3% triton X100. Following rinses, cultures were incubated with biotinylated secondary antibody followed by detection of immuno-staining using the ABC immunoperoxidase kit from Vector. Cells were counted using brightfield microscopy (Nikon Eclipse EM 300). […]

[3] = system: primary ventral mesencephalic cultures; experiment: Primary ventral mesencephalic cultures, count of NeuN-positive cells; type: cell-based, rat
Experimental: as §2

[4] = system: primary ventral midbrain cells (dopamine secreting cells); experiment: Primary ventral midbrain cultures, count of TH-immunoreactive (dopamine) cells; type: cell-based, rat; settings: for number of TH-immunoreactive (IR) cells: ligand alone, increasing concentrations, 3-5 days
Experimental: (§3) Ventral midbrains from rat embryos at stage E15.5 were dissected, mechanically dissociated, and plated on poly-D-lysine coated 12 well plates in serum-free medium (N2; consisting of a 1:1 mixture of F12 and MEM with 5 μg/ml insulin, 100 μg/ml transferrin, 60 μM putrescine, 20 nM progesterone, 30 nM selenium, 6 mg/ml glucose and 1 mg/ml bovine serum albumin).
Ventral midbrain, cortex and hippocampus from rat embryos at stage E14.5-15.5 were dissected, mechanically dissociated and plated on poly-D-lysine coated 12 or 24 well plates in serum free media (N2, consisting of a 1:1 mixture of MEM (+15 mM HEPES buffer) and Ham's F12 medium (+6 mg/ml glucose, 1 mg/ml bovine serum albumin, 5 ug/ml insulin, 100 ug/ml transferrin, 60 μM putrescine, 20 nM progesterone, 30 nM selenium and 1 mM glutamine). Ligands (all-trans RA, 9-cis retinoic acid, LG268, docosahexanoic acid (DHA), SR11237, TTNPB, and LB1208; stock solutions in DMSO) were diluted to working concentrations in N2, added to cells and incubated 3-5 days. GDNF was dissolved in phosphate-buffered saline (PBS) containing 1 mg/ml bovine serum albumin. These experiments were conducted in triplicate. Paraformaldehyde fixed cultures were then incubated over night with anti-tyrosine hydroxylase (TH) (1:1000, Pel-Freez), anti-NeuN (1:200, Chemicon) or anti-Nurr1 (1: 10,000, Santa Cruz) antibodies in PBS containing 0.5% (TH and NeuN) or 10% (Nurr1) fetal calf serum and 0.3% triton X100. Following rinses, cultures were incubated with biotinylated secondary antibody followed by detection of immuno-staining using the ABC immunoperoxidase kit from Vector. Cells were counted using brightfield microscopy (Nikon Eclipse EM 300). Cell counting was performed independently by two individuals to derive unbiased results.

[5] = system: cortex cultures; experiment: Primary cortex cultures, count of Nurr1-positive and non-expressing cells; type: cell-based, rat
Experimental: as §2

[6] = system: Nurr1-/- cortical cells; experiment: Primary cortical cultures from Nurr1-knock-out (Nurr1-/-) mice, NeuN count; type: cell-based, mouse; settings: 0.1 μM, three days
Experimental: as §1

[7] = system: RXR (Nurr1-RXR heterodimer); settings: JEG3, MH100-tk-luc reporter
Experimental: (§4) Human choriocarcinoma cells, JEG3, were transfected in triplicate in 24-well plates. […] Each well was transfected with 100 ng of the gal4-binding luciferase reporter construct, MH100-tk-luc, 100 ng of CMX-RXR (Perlmann et al. (1995) Genes and Dev. 9: 769-782), and 100 ng of either CMX-gal4-Nurr1 (Perlmann et al. (1995) Genes and Dev. 9: 769-782), or CMX-gal4-Nurr1 dim^−.
(§5) In reporter assays of conditioned media and 9-cis retinoic acid titration experiments, a CMX-gal4-RAR construct (Perlmann et al. (1995) Genes and Dev. 9: 769-782) was also used. In all experiments, CMX-βgal (200 ng) (Perlmann et al. (1995) Genes and Dev. 9, 769-782) was used as an internal control. Following transfection of JEG3 cells (6 hours post-transfection), calcium precipitate was removed by washing with fresh medium. Tissue explants or conditioned media were then added to the cells. After 24 hours, cells were harvested and assayed for luciferase and reference β-galactosidase activity on a luminometer/photometer.
Reporter experiments were performed as previously described. […] Briefly, an expression vector encoding a derivative of the orphan-nuclear receptor Nurr1 (GAL4-Nurr1), was cotransfected into JEG3 cells with an expression vector encoding RXR and a reporter expression vector containing GAL4 binding sites in operable linkage with a luciferase reporter gene. […]

[8] = system: RAR; experiment: Luciferase reporter assay in JEG3 cells transfected with gal4-RAR; type: cell-based; settings: JEG3, MH100-tk-luc reporter
Experimental: as §4, §5

[9] = system: primary midbrain cultures; experiment: BrdU pulse labeling of primary midbrain cultures (proliferation); type: cell-based, rat; settings: 0.1 μM
Experimental: as §3
Bromodeoxyuridine (BrdU) was added in relevant experiments 4-6 hours before fixation. After fixation with 4% paraformaldehyde for 45 minutes, cells were rinsed in PBS. BrdU incorporation was detected by incubating cells with 2 M hydrochloric acid prior to digesting with 0.25% pepsin (Sigma). Following PBS rinses, cells were incubated in blocking solution (0.5% bovine serum albumin, 0.5% Tween-20 in PBS), and thereafter incubated with anti-BrdU antibody (Dako A/S; diluted 1:20 in blocking solution) at 4° C. overnight. Antibody-binding was detected with anti-mouse CY3-conjugated IgG (Jackson ImmunoResearch Labs Inc.). Cells were analyzed using inverted epifluorescent microscopy.

Cc1cc2c(cc1C1(c3ccc(C(=O)O)cn3)CC1)C(C)(C)CCC2(C)C [LG268]
total number of neurons (NeuN immunoreactivity) [1]: significantly increased | increase in number of Nurr1-positive cells [2]: 36% | number of Nurr1 non-expressing cells [2]: did not increase | number of NeuN-positive cells (entire neuronal-cell population) [3]: do not produce a general increase | efficiency compared to GDNF (TH-IR cells) ([4]; FIG. 12C, comparison of SR11237, LG268 and GDNF): more potent than either SR11237 or GDNF | number of TH-immunoreactive (IR) cells [4]: dose-dependent increase; also recorded: efficiently increased the number of dopamine neurons | increase in number of Nurr1-positive cells [5]: 39% | number of Nurr1 non-expressing cells [5]: did not increase | total number of neurons (NeuN immunoreactivity) [6]: no increase

CC1=C(/C=C/C(C)=C\C=C\C(C)=C\C(=O)O)C(C)(C)CCC1 [9cisRA, 9-cis retinoic acid]
activation of RXR reporter (titration) [7]: efficient ligand | activation of RAR reporter (titration) [8]: efficient ligand | number of TH-IR neurons when combined with RAR antagonist RO ([4]; increasing concentrations combined with R041-5253 (RO)): increase with increasing concentrations | number of TH-immunoreactive (IR) cells [4]: does not affect the number of TH-IR cells

CC/C=C\C/C=C\C/C=C\C/C=C\C/C=C\C/C=C\CCC(=O)O [DHA, docosahexanoic acid]
number of NeuN-positive cells (entire neuronal-cell population) [3]: do not produce a general increase | number of TH-immunoreactive (IR) cells [4]: increased the number of TH-IR cells in a dose-dependent manner; also recorded: efficiently increased the number of dopamine neurons

CC1(C)CCC(C)(C)c2cc(C3(c4ccc(C(=O)O)cc4)OCCO3)ccc21 [SR11237]
number of dopamine secreting cells ([4]; 72 hour incubation, compared to TTNPB, all-trans retinoic acid or no RXR ligand): increased dopamine secreting cells | number of TH-immunoreactive (IR) cells [4]: dose-dependent increase | proliferation (BrdU) [9]: not due to increased proliferation

C/C(=C\c1ccc(C(=O)O)cc1)c1ccc2c(c1)C(C)(C)CCC2(C)C [TTNPB]
effect on the neurotrophic effect of LG268 ([4]; in the presence of LG268): blocks the neurotrophic effect | number of TH-immunoreactive (IR) cells [4]: does not increase the number of TH-IR cells
